Reference: patent US20090281054A1, “COMPOSITIONS AND METHODS COMPRISING CAPURAMYCIN ANALOGUES” (priority 2008, published 2009)
Converted amounts (≈) assume the structure as drawn. Where two headings read alike, the source gives them in different places.

Legend:
[1] = system: MAC; assay: Synergy by checkerboard titration (microdilution); format: cell-based, M. avium complex; details: for MIC: Mycobacterium avium, drug alone
[2] = system: M. smegmatis (MSMG; MC2155); assay: MIC by microdilution method in 7H9 broth; format: cell-based; details: 72 hr
[3] = system: M. kansaii (MKN; ATCC12478 & 35775); assay: MIC by microdilution method in 7H9 broth; format: cell-based, M. kansasii
[4] = system: M. abscessus (MAB; ATCC 700869); assay: MIC by microdilution method in 7H9 broth; format: cell-based; details: MAB 700869
[5] = system: M. avium complex (MAC); assay: MIC by microdilution method in 7H9 broth; format: cell-based; details: for MIC90: value in square brackets
[6] = system: MTB in J774A.1 cells; assay: Intracellular activity of SQ641 with efflux pump blockers; format: cell-based, Mycobacterium tuberculosis; details: J774A.1 cells; VE and CsA at 10 μM
[7] = system: M. smegmatis; assay: Synergy by checkerboard titration (microdilution); format: cell-based; details: M. smegmatis
[8] = system: intracellular MTB (MTBp-SMT1) in J774A.1 macrophages; assay: Intracellular activity of SQ641-TPGS micelles; format: cell-based, Mycobacterium tuberculosis
[9] = Mycolicibacterium smegmatis, MC2155|MC^2155, MSMG MC^2155, read-out: MIC
[10] = Mycobacterium kansasii, ATCC 12478 / ATCC 35775, MKN ATCC35775, read-out: MIC
[11] = Mycobacterium kansasii, MKN ATCC12478, read-out: MIC
[12] = Mycobacteroides abscessus, ATCC700869, read-out: MIC
[13] = Mycobacterium avium, MAC strain 100, read-out: MIC
[14] = Mycobacterium avium, MAC strain 101, read-out: MIC
[15] = Mycobacterium avium, MAC strain 104, read-out: MIC
[16] = Mycobacterium avium, MAC strain 109, read-out: MIC
[17] = Mycobacterium avium, MAC strain A5, read-out: MIC
[18] = Mycobacterium avium, MAC strain JSH1, read-out: MIC
[19] = Mycobacterium avium, MAC strain NIH C1-1, read-out: MIC
[20] = Mycobacterium avium, MAC strain NIH C1-2, read-out: MIC
[21] = Mycobacterium avium, MAC strain NIH C1-3, read-out: MIC
[22] = Mycobacterium avium, MAC strain NIH C1-4, read-out: MIC
[23] = Mycobacterium avium, MAC isolates, read-out: MIC90
[24] = Mycobacterium avium, 336 h, MAC isolates, 2 wk, read-out: MIC (range)

## NCC[C@H](O)C(=O)N[C@@H]1C[C@H](N)[C@@H](O[C@H]2O[C@H](CN)[C@@H](O)[C@H](O)[C@H]2O)[C@H](O)[C@H]1O[C@H]1O[C@H](CO)[C@@H](O)[C@H](N)[C@H]1O [AMK, amikacin, reference compound]
[1]; MAC A5, combination SQ641 + AMK
  MIC Combination: 0.5 µg/mL
[1]; MAC JSH1, combination SQ641 + AMK
  MIC Combination: 8.0 µg/mL
[1]; MAC NIH C1-1, combination SQ641 + AMK
  MIC Combination: 4.0 µg/mL
[1]; MAC A5
  MIC: 2 µg/mL
[1]; MAC JSH1
  MIC: 16 µg/mL
[1]; MAC NIH C1-1
  MIC: 8 µg/mL
[2]; [9]
  MIC: 0.5 µg/mL (≈ 0.854 µM)
[3]; [10]
  MIC: 2 µg/mL (≈ 3.42 µM)
[3]; [11]
  MIC: 2 µg/mL (≈ 3.42 µM)
[4]; [12]
  MIC: 4 µg/mL (≈ 6.83 µM)
[5]; [13]
  MIC: 8 µg/mL (≈ 13.7 µM)
[5]; [14]
  MIC: 2 µg/mL (≈ 3.42 µM)
[5]; [15]
  MIC: 16 µg/mL (≈ 27.3 µM)
[5]; [16]
  MIC: 1 µg/mL (≈ 1.71 µM)
[5]; [17]
  MIC: 4 µg/mL (≈ 6.83 µM)
[5]; [18]
  MIC: 8 µg/mL (≈ 13.7 µM)
[5]; [19]
  MIC: 8 µg/mL (≈ 13.7 µM)
[5]; [20]
  MIC: 32 µg/mL (≈ 54.6 µM)
[5]; [21]
  MIC: 8 µg/mL (≈ 13.7 µM)
[5]; [22]
  MIC: 4 µg/mL (≈ 6.83 µM)
[5]; [23]
  MIC90: 16 µg/mL (≈ 27.3 µM)

## O=C(O)c1cn(C2CC2)c2cc(N3CCNCC3)c(F)cc2c1=O [CIP, reference compound]
[2]; MSMG MC^2155
  MIC: 0.5 µg/mL (≈ 1.51 µM)
[3]; MKN ATCC12478
  MIC: 2 µg/mL (≈ 6.04 µM)
[3]; MKN ATCC35775
  MIC: 0.25 µg/mL (≈ 0.754 µM)
[4]
  MIC: >32 µg/mL
[5]; MAC isolates, 2 wk
  MIC range: 0.125 to 32 µg/mL
[5]; MAC isolates
  MIC90: 2 µg/mL (≈ 6.04 µM)

## CC[C@H]1OC(=O)[C@H](C)[C@@H](O[C@H]2C[C@@](C)(OC)[C@@H](O)[C@H](C)O2)[C@H](C)[C@@H](O[C@@H]2O[C@H](C)C[C@H](N(C)C)[C@H]2O)[C@](C)(OC)C[C@@H](C)C(=O)[C@H](C)[C@@H](O)[C@]1(C)O [CLA, clarithromycin, reference compound]
[1]; MAC A5, combination SQ641 + CLA
  MIC Combination: 0.031 µg/mL
[1]; MAC JSH1, combination SQ641 + CLA
  MIC Combination: 1 µg/mL
[1]; MAC NIH C1-1, combination SQ641 + CLA
  MIC Combination: 2.0 µg/mL
[1]; MAC A5
  MIC: 0.125 µg/mL
[1]; MAC JSH1
  MIC: 1 µg/mL
[1]; MAC NIH C1-1
  MIC: 2 µg/mL
[2]; [9]
  MIC: 2 µg/mL (≈ 2.67 µM)
[3]; [10]
  MIC: 0.25 µg/mL (≈ 0.334 µM)
[3]; [11]
  MIC: 0.25 µg/mL (≈ 0.334 µM)
[4]; [12]
  MIC: > 32 µg/mL
[5]; [24]
  MIC: 0.062 to 32 µg/mL (≈ 0.0829 to 42.8 µM)
[5]; [13]
  MIC: 0.25 µg/mL (≈ 0.334 µM)
[5]; [14]
  MIC: 0.125 µg/mL (≈ 0.167 µM)
[5]; [15]
  MIC: 0.5 µg/mL (≈ 0.668 µM)
[5]; [16]
  MIC: 0.062 µg/mL (≈ 0.0829 µM)
[5]; [17]
  MIC: 0.125 µg/mL (≈ 0.167 µM)
[5]; [18]
  MIC: 2 µg/mL (≈ 2.67 µM)
[5]; [19]
  MIC: 1 µg/mL (≈ 1.34 µM)
[5]; [20]
  MIC: 0.25 µg/mL (≈ 0.334 µM)
[5]; [21]
  MIC: 32 µg/mL (≈ 42.8 µM)
[5]; [22]
  MIC: 1 µg/mL (≈ 1.34 µM)
[5]; [23]
  MIC90: 2 µg/mL (≈ 2.67 µM)

## Cc1ccc(C)c(OCCCC(C)(C)C(=O)O)c1 [GF, gemfibrozil, reference compound]
[6]
  Effect of efflux pump blocker on intracellular activity of SQ641 against MTB: only moderate effects

## COc1c(N2C[C@@H]3CCCN[C@@H]3C2)c(F)cc2c(=O)c(C(=O)O)cn(C3CC3)c12 [MOX, moxifloxacin, reference compound]
[2]; Mycolicibacterium smegmatis, MC2155|MC^2155, read-out: MIC
  MIC: 0.125 µg/mL (≈ 0.311 µM)
[3]; [10]
  MIC: 0.031 µg/mL (≈ 0.0772 µM)
[3]; [11]
  MIC: 0.125 µg/mL (≈ 0.311 µM)
[4]; [12]
  MIC: > 32 µg/mL

## CCCN(CCC)S(=O)(=O)c1ccc(C(=O)O)cc1 [PB, probenecid, reference compound]
[6]
  Effect of efflux pump blocker on intracellular activity of SQ641 against MTB: only moderate effects

## CO[C@H]1/C=C/O[C@@]2(C)Oc3c(C)c(O)c4c(O)c(c(/C=N/N5CCN(C)CC5)c(O)c4c3C2=O)NC(=O)/C(C)=C\C=C\[C@H](C)[C@H](O)[C@@H](C)[C@@H](O)[C@@H](C)[C@H](OC(C)=O)[C@@H]1C [RIF, rifampicin, reference compound]
[7]; combination SQ641 + RIF
  MIC Combination: 2.0 µg/mL
[7]; Mycolicibacterium smegmatis, drug alone
  MIC: 8 µg/mL
[8]
  Mean RLU at Day 7: 22 RLU
[2]; [9]
  MIC: 8 µg/mL (≈ 9.72 µM)
[3]; Mycobacterium kansasii, ATCC12478
  MIC: 0.125 µg/mL (≈ 0.152 µM)
[3]; Mycobacterium kansasii, ATCC 12478 / ATCC 35775
  MIC: 0.125 µg/mL (≈ 0.152 µM)
[4]; [12]
  MIC: > 32 µg/mL
[5]; [24]
  MIC: 0.062 to 4 µg/mL (≈ 0.0753 to 4.86 µM)
[5]; [23]
  MIC90: 1 µg/mL (≈ 1.22 µM)
